How the values were obtained:
Type in all cases: cell-based
CFTR-S549N = biological target: T1, CFTR-S549N (Homo sapiens, UniProt P13569, S549N); test: YFP-halide influx assay for the CFTR-S549N
T1 construct: expressed in transfected cells; HEK293 with plasmid vectors inferred from the G551D protocol, to which the assay is called similar
Source text: (§1) The YFP halide influx assay measured the functionality of the cystic fibrosis Transmembrane Conductance regulator (CFTR) channels. The assay was used to evaluate the capacity of compounds to increase the channel opening of existing mutant CFTR channels in the membrane. It makes use of the observation that the yellow fluorescent protein (YFP) variant YFP H148Q, I152L, F47L has its fluorescence substantially quenched by halide ions like Cl^− and I^− (Galietta, L. J. V., Haggie, P. M., Verkman, A. S., 2001. Green fluorescent protein-based halide indicators with improved chloride and iodide affinities. FEBS Lett. 499, 220-224. doi:10.1016/S0014-5793(01)02561-3).
(§2) For this purpose, HEK293-cells were seeded in 96 well plates. During seeding, the cells were reverse-transfected with plasmid vectors that direct the expression of the CFTR G551D mutant and of the YFP reporter. Cells were incubated at 37° C., 5% CO2 for 24 hours so as to allow for sufficient expression of the CFTR protein.
(§3) The I^−-induced quenching of fluorescence was recorded immediately after injection of I^− for 7 seconds. The capacity of a compound to increase the channel opening was directly correlated with the decrease in fluorescence, and was expressed as (1-(fluorescence after 7 seconds (F)/fluorescence before injection (F0))) and an EC50 was derived from a (1−F/F0) vs compound concentration plot.
(§4) Similar YHA assays were developed for other channel gating defective or channel conductance defective CFTR mutants to determine effect of compound on channel activity. Examples of mutants are G178R, G1349D, S549N, R117H, R334W. This assay is also used for additional class I CFTR mutants, including G542X, W1282X; class II mutants including N1303K, and for class III mutants including S1251N; or wild-type CFTR.

CFTR ΔF508 mutant = biological target: T2, CFTR ΔF508 mutant (Homo sapiens, UniProt P13569, DEL508-508); test: YFP-halide influx assay for the CFTR-ΔF508 mutation; settings: CFBE41o- cells expressing CFTR ΔF508 and YFP reporter, forskolin 10.67 μM; for EC50: (1-F/F0) vs concentration
T2 construct: expressed in transfected cells; host or cells: CFBE41o- cells transduced with adenoviral vectors
Source text: as §1, with “channels in the cystic fibrosis bronchial epithelium cell line CFBE41o-.” for “channels.”, “open probability” for “channel opening”, “existing” for “existing mutant”, “doi:10.1016/S0014-5793(01)02561-3; Nagai, T., Ibata, K., Park, E. S., Kubota, M., Mikoshiba, K., Miyawaki, A., 2002. A variant of yellow fluorescent protein with fast and efficient maturation for cell-biological applications. Nat. Biotechnol. 20, 87-90. doi:10.1038/nbt0102-87).” for “doi:10.1016/S0014-5793(01)02561-3).”
For this purpose, CFBE410-cells were seeded in 384 well plates (3000 CFBE cells/well). One day after seeding, the CFBE cells were transduced with adenoviral vectors that direct the expression of the CFTR ΔF508 mutant and of the YFP reporter. Cells were incubated at 27° C., 5% CO2 for 24 hours so as to allow for the proper folding and migration to the membrane of the CFTR channel or treated with a CFTR modulator during 24 hours at 37° C.
as §3, with “I-induced” for “I^−-induced”, “recorded on an” for “recorded”, “iodide” for “I^−”, “2 minutes on an FDSS/μCell (Hamamatsu).” for “7 seconds.”, “36” for “7”, “(1-F/F0)” for “(1−F/F0)”

CFTR-R117H = biological target: T3, CFTR-R117H (Homo sapiens, UniProt P13569, R117H); test: YFP-halide influx assay for the CFTR-R117H
T3 construct: expressed in transfected cells; HEK293 with plasmid vectors inferred from the G551D protocol, to which the assay is called similar
Source text: as §1, §2, §3, §4

CFTR-G1349D = biological target: T4, CFTR-G1349D (Homo sapiens, UniProt P13569, G1349D); test: YFP-halide influx assay for the CFTR-G1349D
T4 construct: expressed in transfected cells; HEK293 with plasmid vectors inferred from the G551D protocol, to which the assay is called similar
Source text: as §1, §2, §3, §4

CFTR G551D mutant = biological target: T5, CFTR G551D mutant (Homo sapiens, UniProt P13569, G551D); test: YFP-halide influx assay for the CFTR-G551D mutation; settings: HEK293 cells expressing CFTR G551D and YFP reporter; forskolin 10.67 μM
T5 construct: expressed in transfected cells; host or cells: HEK293 cells, reverse-transfected with plasmid vectors
Source text: as §1, §2, §3

CFTR-G178R = biological target: T6, CFTR-G178R (Homo sapiens, UniProt P13569, G178R); test: YFP-halide influx assay for the CFTR-G178R
T6 construct: expressed in transfected cells; HEK293 with plasmid vectors inferred from the G551D protocol, to which the assay is called similar
Source text: as §1, §2, §3, §4

CFTR ΔF508 = biological target: T7, CFTR ΔF508 (Homo sapiens, UniProt P13569, DEL508-508); test: TECC assay in CFTR ΔF508, primary bronchial epithelial cells; settings: bronchial epithelial cells from CF patients homozygous for ΔF508, treated with 3 μM VX809 or 0.15 μM GLPG2222; increase in Isc after forskolin
T7 construct: bronchial epithelial cells isolated from CF patients homozygous for the CFTR ΔF508 mutation; host or cells: primary human bronchial epithelial cells (hAEC-CF) from CF patients homozygous for ΔF508, pre-treated with the corrector VX809 or GLPG2222
Experimental: The TECC (Transepithelial Clamp Circuit, EP-design) assay measures the functionality of the cystic fibrosis Transmembrane Conductance regulator (CFTR) by measuring the short circuit current (ISC) generated over the basolateral and apical membrane of lung epithelial cells. In TECC the transepithelial potential PD and transepithelial resistance (Rt) are measured in an open circuit and transformed to ISC using Ohm's law. 24 Wells can be measured simultaneously allowing a higher throughput compared to Ussing chambers.
For this purpose, bronchial epithelial cells isolated from CF patients homozygous for the CFTR ΔF508 mutation (hAEC-CF, McGill, UNC) are plated on type IV collagen-coated Transwell® supports (Costar). Human airway epithelia are generated by provision of an air liquid interface for 21 days to form well-differentiated polarized cultures that resemble in vivo pseudo-stratified ciliated epithelium (Fulcher, M. L., Gabriel, S., Burns, K. A., Yankaskas, J. R., Randell, S. H., 2005. Well-differentiated human airway epithelial cell cultures. Methods Mol. Med. 107, 183-206). […]
When subjected to this protocol, the following values were obtained. The difference between ΔIsc measured as DMSO (baseline), and the ΔIsc measured with the compound tested.

T2 sequence (P13569 with tags, fused parts or gaps DEL508-508): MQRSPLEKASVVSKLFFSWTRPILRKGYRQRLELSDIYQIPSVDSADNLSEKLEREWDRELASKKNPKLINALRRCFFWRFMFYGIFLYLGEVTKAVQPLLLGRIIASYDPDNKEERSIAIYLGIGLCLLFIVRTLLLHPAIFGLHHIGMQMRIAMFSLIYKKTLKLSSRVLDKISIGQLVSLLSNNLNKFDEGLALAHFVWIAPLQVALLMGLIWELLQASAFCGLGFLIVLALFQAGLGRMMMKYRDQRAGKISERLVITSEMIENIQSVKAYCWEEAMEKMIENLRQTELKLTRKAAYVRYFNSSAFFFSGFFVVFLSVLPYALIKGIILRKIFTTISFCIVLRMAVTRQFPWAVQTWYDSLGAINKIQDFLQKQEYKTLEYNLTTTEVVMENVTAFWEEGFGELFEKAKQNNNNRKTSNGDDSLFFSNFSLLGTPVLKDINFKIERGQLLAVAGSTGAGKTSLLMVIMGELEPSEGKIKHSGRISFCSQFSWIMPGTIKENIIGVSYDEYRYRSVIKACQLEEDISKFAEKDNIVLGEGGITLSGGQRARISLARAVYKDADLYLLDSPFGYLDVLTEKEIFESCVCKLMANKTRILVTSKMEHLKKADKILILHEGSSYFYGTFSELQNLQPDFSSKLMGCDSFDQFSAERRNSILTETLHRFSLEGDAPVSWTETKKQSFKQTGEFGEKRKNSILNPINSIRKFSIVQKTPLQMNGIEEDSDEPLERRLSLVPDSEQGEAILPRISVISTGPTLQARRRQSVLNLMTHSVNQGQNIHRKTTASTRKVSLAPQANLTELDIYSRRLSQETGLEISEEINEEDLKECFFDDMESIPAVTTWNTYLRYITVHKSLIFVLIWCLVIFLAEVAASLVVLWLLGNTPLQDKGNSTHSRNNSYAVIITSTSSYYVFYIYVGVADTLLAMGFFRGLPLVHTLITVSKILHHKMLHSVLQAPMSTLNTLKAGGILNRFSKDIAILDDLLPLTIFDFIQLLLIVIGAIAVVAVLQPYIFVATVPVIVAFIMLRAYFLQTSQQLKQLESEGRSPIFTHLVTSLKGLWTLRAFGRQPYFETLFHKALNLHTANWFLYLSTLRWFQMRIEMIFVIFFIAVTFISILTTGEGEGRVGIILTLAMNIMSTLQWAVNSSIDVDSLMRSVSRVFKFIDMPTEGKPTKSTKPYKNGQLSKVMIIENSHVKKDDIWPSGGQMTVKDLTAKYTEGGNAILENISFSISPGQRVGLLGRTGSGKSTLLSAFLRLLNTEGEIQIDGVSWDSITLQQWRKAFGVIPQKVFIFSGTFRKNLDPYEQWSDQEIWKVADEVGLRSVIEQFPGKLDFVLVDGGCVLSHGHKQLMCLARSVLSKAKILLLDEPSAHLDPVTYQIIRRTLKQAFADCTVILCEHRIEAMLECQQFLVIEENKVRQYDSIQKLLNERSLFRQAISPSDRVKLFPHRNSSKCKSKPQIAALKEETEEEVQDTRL
T1 sequence (P13569 whole entry S549N): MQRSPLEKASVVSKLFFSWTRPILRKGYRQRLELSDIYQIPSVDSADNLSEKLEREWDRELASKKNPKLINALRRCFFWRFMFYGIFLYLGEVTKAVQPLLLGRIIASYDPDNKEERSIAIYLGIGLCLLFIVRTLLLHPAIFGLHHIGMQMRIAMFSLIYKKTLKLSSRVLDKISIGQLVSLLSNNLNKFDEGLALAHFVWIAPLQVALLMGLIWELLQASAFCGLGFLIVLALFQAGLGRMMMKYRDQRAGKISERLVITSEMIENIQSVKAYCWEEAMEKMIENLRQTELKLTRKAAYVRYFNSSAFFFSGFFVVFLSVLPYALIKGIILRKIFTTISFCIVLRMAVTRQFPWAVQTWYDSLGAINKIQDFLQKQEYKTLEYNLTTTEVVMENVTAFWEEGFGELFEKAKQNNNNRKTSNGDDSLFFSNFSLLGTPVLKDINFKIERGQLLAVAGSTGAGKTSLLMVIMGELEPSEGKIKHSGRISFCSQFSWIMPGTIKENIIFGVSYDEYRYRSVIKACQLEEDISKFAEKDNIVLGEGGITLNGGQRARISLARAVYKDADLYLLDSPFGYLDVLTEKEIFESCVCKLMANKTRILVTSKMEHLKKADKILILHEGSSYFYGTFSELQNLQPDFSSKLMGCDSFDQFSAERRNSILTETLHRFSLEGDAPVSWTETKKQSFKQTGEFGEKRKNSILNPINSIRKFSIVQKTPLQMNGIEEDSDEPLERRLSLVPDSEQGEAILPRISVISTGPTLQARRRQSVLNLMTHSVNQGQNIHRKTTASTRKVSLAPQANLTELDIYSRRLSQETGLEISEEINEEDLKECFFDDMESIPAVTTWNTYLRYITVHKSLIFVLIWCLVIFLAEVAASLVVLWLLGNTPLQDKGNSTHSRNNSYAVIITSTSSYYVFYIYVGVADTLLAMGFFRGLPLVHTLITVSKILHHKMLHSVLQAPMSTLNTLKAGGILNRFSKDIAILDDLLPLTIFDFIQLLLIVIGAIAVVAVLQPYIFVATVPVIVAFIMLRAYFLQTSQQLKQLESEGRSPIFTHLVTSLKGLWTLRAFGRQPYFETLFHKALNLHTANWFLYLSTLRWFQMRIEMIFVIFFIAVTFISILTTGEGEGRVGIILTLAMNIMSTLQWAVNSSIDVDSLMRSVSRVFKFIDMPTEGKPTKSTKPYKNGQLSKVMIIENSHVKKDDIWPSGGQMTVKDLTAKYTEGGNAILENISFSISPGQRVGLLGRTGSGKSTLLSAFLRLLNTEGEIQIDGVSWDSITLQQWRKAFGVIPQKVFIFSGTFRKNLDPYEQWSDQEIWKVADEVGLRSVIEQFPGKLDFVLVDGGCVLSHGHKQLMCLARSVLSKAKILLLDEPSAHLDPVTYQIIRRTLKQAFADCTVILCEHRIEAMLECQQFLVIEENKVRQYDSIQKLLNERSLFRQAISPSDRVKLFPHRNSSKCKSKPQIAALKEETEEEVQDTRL
T3 sequence (P13569 whole entry R117H): as the sequence (P13569 whole entry S549N) above, with R117H, N549S counted along it
T4 sequence (P13569 whole entry G1349D): as the sequence (P13569 whole entry S549N) above, with N549S, G1349D counted along it
T5 sequence (P13569 whole entry G551D): as the sequence (P13569 whole entry S549N) above, with N549S, G551D counted along it
T6 sequence (P13569 whole entry G178R): as the sequence (P13569 whole entry S549N) above, with G178R, N549S counted along it
T7 sequence (P13569 with tags, fused parts or gaps DEL508-508): as the sequence (P13569 with tags, fused parts or gaps DEL508-508) above

Row | SMILES | % Activation (CFTR-S549N) | EC50 (CFTR-S549N) | % Activation (CFTR ΔF508 mutant) | EC50 (CFTR ΔF508 mutant) | % Activation (CFTR-R117H) | EC50 (CFTR-R117H) | % Activation (CFTR-G1349D) | EC50 (CFTR-G1349D) | % Activation (CFTR G551D mutant) | EC50 (CFTR G551D mutant) | % Activation (CFTR-G178R) | EC50 (CFTR-G178R) | EC50 (CFTR ΔF508)
1 | CC(O)(c1nnc(-c2ncc(S(=O)(=O)c3ccc(OC(F)(F)F)cc3)cc2N)o1)C(F)(F)F (stereo not shown) [Compound 3, 2-(5-{3-amino-5-[4-(trifluoromethoxy)benzene-1-sulfonyl]pyridin-2-yl}-1,3,4-oxadiazol-2-yl)-1,1,1-trifluoropropan-2-ol] | 56.3% | 55.9 nM | 120.51% | 2.36 nM | 89.0% | 35.5 nM | 58.6% | 44.9 nM | 49.0% | 181 nM | 57.4% | 1440 nM | –
2 | Nc1cc(S(=O)(=O)c2ccc(OC(F)(F)F)cc2)cnc1-c1nnc(C(O)C(F)(F)F)o1 (stereo not shown) [Compound 4, 1-(5-{3-amino-5-[4-(trifluoromethoxy)benzene-1-sulfonyl]pyridin-2-yl}-1,3,4-oxadiazol-2-yl)-2,2,2-trifluoroethan-1-ol] | – | – | 103.69% | 1.8 nM | – | – | – | – | 34.3% | > 6770 nM | – | – | 6 nM
3 | Nc1cc(S(=O)(=O)c2ccc(OC(F)(F)F)cc2)cnc1-c1ncc(CO)s1 [Compound 5, (2-{3-amino-5-[4-(trifluoromethoxy)benzene-1-sulfonyl]pyridin-2-yl}-1,3-thiazol-5-yl)methanol] | – | – | 58.29% | > 667 nM | – | – | – | – | 0.3% | > 10000 nM | – | – | –
4 | Nc1cc(S(=O)(=O)c2ccc(OC(F)(F)F)cc2)cnc1-c1nnc(CO)o1 [Compound 1, (5-{3-amino-5-[4-(trifluoromethoxy)benzene-1-sulfonyl]pyridin-2-yl}-1,3,4-oxadiazol-2-yl)methanol] | 75.4% | 275 nM | 113.82% | 5.57 nM | 88.7% | 184 nM | 72.8% | 137 nM | 37.7% | > 10000 nM | 67.2% | 196 nM | 40 nM
5 | Nc1cc(S(=O)(=O)c2ccc(OC(F)(F)F)cc2)cnc1-c1nnc(C2CCCCC2)o1 [Compound 10, 2-(5-cyclohexyl-1,3,4-oxadiazol-2-yl)-5-[4-(trifluoromethoxy)benzene-1-sulfonyl]pyridin-3-amine] | – | – | 106.5% | 14.9 nM | – | – | – | – | – | – | – | – | –
6 | Nc1cc(S(=O)(=O)c2ccc(OC(F)(F)F)cc2)cnc1-c1nnc(COC2CCCC2)o1 [Compound 14, 2-{5-[(cyclopentyloxy)methyl]-1,3,4-oxadiazol-2-yl}-5-[4-(trifluoromethoxy)benzene-1-sulfonyl]pyridin-3-amine] | – | – | 116.8% | 67.9 nM | – | – | – | – | – | – | – | – | –

Other lines, results leading:

Row | % Activation (CFTR-S549N) | EC50 (CFTR-S549N) | % Activation (CFTR ΔF508 mutant) | EC50 (CFTR ΔF508 mutant) | % Activation (CFTR-R117H) | EC50 (CFTR-R117H) | % Activation (CFTR-G1349D) | EC50 (CFTR-G1349D) | % Activation (CFTR G551D mutant) | EC50 (CFTR G551D mutant) | % Activation (CFTR-G178R) | EC50 (CFTR-G178R) | EC50 (CFTR ΔF508) | SMILES
7 | – | – | 23.23% | > 3320 nM | – | – | – | – | – | – | – | – | – | Nc1cc(S(=O)(=O)c2ccc(OC(F)(F)F)cc2)cnc1-c1nc(CC2CCCO2)no1 (stereo not shown) [Compound 51, 2-{3-[(oxolan-2-yl)methyl]-1,2,4-oxadiazol-5-yl}-5-[4-(trifluoromethoxy)benzene-1-sulfonyl]pyridin-3-amine]
8 | – | – | 109.05% | 224 nM | – | – | – | – | – | – | – | – | – | Nc1cc(S(=O)(=O)c2ccc(OC(F)(F)F)cc2)cnc1-c1nnc(COc2cccnc2)o1 [Compound 38, 2-(5-{[(pyridin-3-yl)oxy]methyl}-1,3,4-oxadiazol-2-yl)-5-[4-(trifluoromethoxy)benzene-1-sulfonyl]pyridin-3-amine]
9 | – | – | 100.82% | 13.7 nM | – | – | – | – | – | – | – | – | – | Nc1cc(S(=O)(=O)c2ccc(OC(F)(F)F)cc2)cnc1-c1nnc(COCC2CC2)s1 [Compound 24, 2-{5-[(cyclopropylmethoxy)methyl]-1,3,4-thiadiazol-2-yl}-5-[4-(trifluoromethoxy)benzene-1-sulfonyl]pyridin-3-amine]
10 | – | – | 122% | < 0.46 nM | – | – | – | – | – | – | – | – | – | Nc1cc(S(=O)(=O)c2ccc(OC(F)(F)F)cc2)c(Cl)nc1-c1nnc(CO)o1 [Compound 64, (5-{3-amino-6-chloro-5-[4-(trifluoromethoxy)benzene-1-sulfonyl]pyridin-2-yl}-1,3,4-oxadiazol-2-yl)methanol]

— patent publication US10138227B2, “Heteroaryl substituted pyridines and methods of use” (AbbVie S.à.r.l., priority 2016, dated 2018)
